Results: patent publication US12656344B2, “CTL peptide epitopes and antigen-specific T cells, methods for their discovery, and uses thereof” (Oslo universitetssykehus HF, priority 2013, dated 2026)
Where no end group is shown, it is not given here.

Experiments:
[1] = system: T cell clones reactive to MPO peptide #25; test: Binding of HLA-A2 multimers with alanine-substituted MPO peptide #25 to T cell clones; assay type: cell-based, human; conditions: PE-conjugated multimers; 3 T cell clones from CTL line #25; flow cytometry
Description: FIG. 6A-C. […] (A) Assays were performed as described in FIG. 2, except that only degranulation responses were measured. […] (B) Three of the clones shown in (A) were examined for binding of PE-conjugated HLA-A2 multimers containing the #25 peptide with and without an alanine substitution in each position, using flow cytometry.
To obtain more information on the range of T cell reactivities to one of these novel T cell epitopes, T-cell clones were generated from CTL line #25, specific for MPO epitope […] (SEQ ID NO:45).

[2] = system: primary T cells transduced with a MART-1 specific TCR; test: Binding of alanine-replaced peptide #25 multimers to MART-1 TCR transduced T cells; assay type: cell-based, human; conditions: specificity control for alanine-replaced multimers

Substance: P506A: MPO peptide #25 (LIQPFMFRL) with an alanine-replacement in position 4, in HLA-A2 multimer (LIQAFMFRL; also: in HLA-A2 multimer) [Peptide P506A]
- HLA-A2 multimer binding of alanine-substituted #25 peptide relative to WT peptide [1]: higher binding
- Multimer binding to primary T cells transduced with a MART-1 specific TCR [2]: bound non-specifically
